This is an account of results in patent US20130183266A1, “COMPOUNDS AND METHODS FOR THE TREATMENT OR PREVENTION OF FLAVIVIRUS INFECTIONS” (Vertex Pharmaceuticals Incorporated, priority 2010, published 2013).

Each structure is given as a SMILES string.

Assay [1] concerns HCV replicon (genotype 1b) in Huh7 hepatoma cell line ET. In words: microbe, parasite or virus in culture. It is filed as cell-based. Particulars: Hepatitis C virus, Huh-7, 96 h, read-out: HCV-Replicon-1b- IC50. On the technique in general: Replicon systems follow genome replication, usually without infectious particles.
In assay [2] the test system is HCV sub-genomic replicon of genotype 1a in replicon cell line W11.8. Put plainly: microbe, parasite or virus in culture. It is filed as cell-based. Particulars: Hepatitis C virus, W11.8, 96 h, read-out: HCV-Replicon-ELISA-1a-IC50.

Regarding `[2H]c1c([2H])c([2H])c(-c2cc(N(C(=O)C3CCC(C)CC3)[C@H]3CC[C@H](O)CC3)c(C(=O)O)s2)c([2H])c1[2H]` (stereo partly drawn) [Compound 1, 3-[(trans-4-Hydroxy-cyclohexyl)-(trans-4-methylcyclohexanecarbonyl)-amino]-5-d5-phenyl-thiophene-2-carboxylic acid], the concentration for half-maximal inhibition (IC50) (commonly the concentration that gives 50% inhibition) in assay [1] fell in the range of 100 to 1000 nM.

With `[2H][C@]1(O)CC[C@H](N(C(=O)C2CCC(C)CC2)c2cc(C#CC(C)(C)C)sc2C(=O)O)CC1` (stereo partly shown) [Compound 3], the IC50 in assay [2] and in assay [1] was under 100 nM throughout. As to `[2H][C@]1(O)CC[C@H](N(C(=O)C2CCC(C)CC2)c2cc(-c3ccccc3)sc2C(=O)O)CC1` (stereo partly shown) [Compound 4], the IC50 in assay [1] was in the range of 100 to 1000 nM.
